Data as given in patent US7919480B2, “Polymers having covalently bound antibiotic agents” (Ethicon, Inc., priority 2007, dated 2011).

System: S. aureus ATCC 6538
Assay: log reduction assay (Example 4)
Assay type: cell-based
Experimental: Sample of ONM covalently bound to ORC (ORC-ONM-CV) from example 3 were tested for its in vitro efficacy by log reduction assay. In the log reduction assay, the test articles (squares of about 4.0 mg/piece) were challenged with about 1-2×10e4 CFU bacteria on the surface of the test articles for one hour. To facilitate the test of efficacy on surface of the test articles with covalent bound ONM, the inoculum was delivered in 10 ul/item, the small volume relative to the test articles allowed complete absorption of the inoculum by the test articles such that the inoculum localized on surfaces of the test articles. The inoculum was prepared in 20× potassium phosphate buffer, which maintained pH of the test articles close to neutral. The antimicrobial efficacy of ORC at neutral pH will be minimized, so that the log reduction would indicate the antibacterial efficacy of ONM rather than ORC. After the challenge, the test article was immersed in saline with shaking to remove survival bacteria and the survival bacteria were measured by plate count. The plate counts were conducted in trypticase soy agar and incubated at 37° C. for 24 hours.

For POLYQUATERNIUM 1 [ONM control], the log reduction (log CFU of inoculum − log CFU of treated, 1 h challenge) was 4.2 log and the “log CFU” value (surviving bacteria after 1 h challenge with about 1-2x10e4 CFU, neutral pH) was 0.3 log CFU.
